In US20250195687A1, “PEPTIDE-BASED PHOSPHATE BINDER FOR THE TREATMENT OF HYPERPHOSPHATEMIA” (B. G. NEGEV TECHNOLOGIES AND APPLICATIONS LTD., priority 2022, published 2025):

Tests used:
[1] = Colorimetric (molybdenum blue) phosphate binding in intestinal and gastric fluid simulants; details: pH=6 or pH=7.5 (clinical PhB at pH=7.5)
From the text: The binding efficiency of the SiO2-CysHex particles in intestinal and digestive fluid simulants was examined by a colorimetric method. The procedure was based on the determination of the amount of uncaptured phosphate from a solution of known initial phosphate concentration. A spectrophotometric assay referred to as the molybdenum blue reaction was employed. It emits a blue color whose intensity is linearly proportional to the amount of phosphate present in the solution allowing by measurement of color intensity and proper calibration, to determine phosphate concentration. The reaction involves the following two steps: • 1. PO4^3−+12(NH4)2MoO4+24H^+→(NH4)3PO4·12MoO3+21NH4^++12H2O • 2. […]
For this experiment, a phosphate assay kit (Sigma-Aldrich) with a stated concentration range between 0.005 mM and 0.025 mM phosphate was used. The kit included a 10 mM phosphate standard solution and a coloring reagent that reacts with phosphates to form a complex that could be measured and quantified by UV-VIS absorbance spectroscopy. The phosphate standard was used to prepare a calibration curve between the absorbance intensity at a wavelength of 650 nm and phosphate concentrations. […]
A volume of 20 μL of the supernatant filtrate (sec 4.3.3.1.2), 180 μL DI water, and 30 μL coloring reagent were added to a 96 well plate. Two duplicates of each sample were measured, and the resulting values were averaged. […]

[2] = 31P NMR phosphate peak widening by free peptide in intestinal fluid simulants; type: binding; details: for phosphate peak widening: peptide 13.1 mM, phosphate 2.6 mM
From the text: ^31P NMR-NMR relaxation is the process by which excited magnetic state nuclei return to their equilibrium distribution. At the start of an NMR experiment, the nuclei are “lined up” with the external magnetic field. When an electromagnetic RF field is activated on these nuclei, they resonate at a characteristic resonance frequency, and the NMR signal is created. At that instant, all the nuclei are in phase and coherent. However, due to small differences in their resonance frequencies, they will begin to dephase. The time it takes for the nuclei to dephase is measured by T2 the so-called spin-spin relaxation time. T2 is inversely proportional to Δω, the width of the resonance peak in the spectra measured at half the maximum height: Δω=2/T2. The more slowly a macromolecule tumbles, the shorter its T2; thus, big molecules have broader resonance peaks than small molecules. An increase in molecular size due to interaction or reduced mobility affects the T2 relaxation time and is manifested by widening the NMR signal.
In this study, phosphate-binding experiments of free (unattached to silica) peptides in intestinal fluid simulants as function of the surrounding pH were examined. Binding was determined by the widening of the relevant phosphate peaks in phosphorus NMR (^31P NMR) spectra. These experiments aimed to investigate the effect of the background solution containing many components on the ability of the peptide to bind phosphate. ^31P NMR experiments were preferred over standard ^1H NMR since in the former only one (phosphate) or at most two (phosphate and phospholipid) peaks are detected as opposed to the multitude of frequently overlapping, peaks in the spectra of the latter. […]
Samples were prepared by mixing the required amounts of phosphate stock solution, and FAS or FES solutions into one 1.5 mL Eppendorf tube, and phosphate stock, peptide stock, and FAS or FES solution into a second similar tube. in. The pH was measured and adjusted to the desired value as described above. […] The contents of each Eppendorf tube were analyzed separately by NMR as described below. […]

[3] = 31P NMR phospholipid peak widening by free peptide in FES solution; type: binding
From the text: ^31P NMR-NMR relaxation is the process by which excited magnetic state nuclei return to their equilibrium distribution. At the start of an NMR experiment, the nuclei are “lined up” with the external magnetic field. When an electromagnetic RF field is activated on these nuclei, they resonate at a characteristic resonance frequency, and the NMR signal is created. At that instant, all the nuclei are in phase and coherent. However, due to small differences in their resonance frequencies, they will begin to dephase. The time it takes for the nuclei to dephase is measured by T2 the so-called spin-spin relaxation time. T2 is inversely proportional to Δω, the width of the resonance peak in the spectra measured at half the maximum height: Δω=2/T2. The more slowly a macromolecule tumbles, the shorter its T2; thus, big molecules have broader resonance peaks than small molecules. An increase in molecular size due to interaction or reduced mobility affects the T2 relaxation time and is manifested by widening the NMR signal. […]
The first sample used for FES solution reference was composed of 1 mL FES solution which was placed in a 1.5 mL Eppendorf tube. […] The pH was measured using a pH electrode (Mettler Toledo, SevenComplex) and adjusted to the desired value by dropwise addition of HCl or NaOH solutions. […] The contents of each Eppendorf tube were analyzed separately by NMR as described below.
Solution ^31P NMR data were collected on a Bruker Avance III 400 MHz spectrometer (Bruker BioSpin, Germany). […] A capillary tube insert filled with phosphoric acid solution in D2O (10% v/v phosphoric acid in D2O/H2O) was used for calibration and inserted into the NMR tube that contained the measured sample. […] NMR data was analyzed using TopSpin software (Bruker).
The capability of a free unbound peptide to capture phosphate in the intestinal simulant solutions was examined using P NMR. […] As discussed above, binding is qualitatively evaluated by the decrease in T2 relaxation, or the corresponding widening of the peak associated with the phosphorus nuclei in the molecule and calculated as follows: […]

pH of lowest phospholipid binding ([3]; absence of phosphate) | phospholipid binding ([3]; absence of phosphate, 6.5 peptide molecules per phospholipid molecule, entire relevant pH range) | Compound | Phosphate binding effectiveness ([1]; FAS) [mg phosphate/gr PhB] | Phosphate binding effectiveness ([1]; FES) [mg phosphate/gr PhB] | phosphate peak widening ([2]; FAS solution) | phosphate peak widening ([2]; FES solution) | pH range in which the peptide captures phosphate ([2]; only in FES) | phospholipid peak width (ratio) ([3]; pH=6, peptide 13.1 mM and phosphate 2.6 mM present, phospholipid 2 mM, average of three measurements)
 |  | O=C([O-])[O-].O=C([O-])[O-].O=C([O-])[O-].[La+3].[La+3] [Lanthanum, Lanthanum carbonate] | 4.1 | 0.9 |  |  |  | 
~6 | binds the phospholipid quite effectively | Cys-SGAGKT [CysHex] |  |  | no widening | pH dependent and is maximal at pH values commensurate with values in the GI tract | 7-8 | 0.93±0.15
